Assay results: patent publication US5985933A, “Methods for treating central and peripheral nerve pain” (Celgene Corporation, priority 1997, dated 1999)
Like-named read-outs stand apart in the source and are kept apart here.

Tests used:
[1] = system: mechanical (tactile) allodynia in streptozotocin diabetic rats; test: animal or person; settings: Rattus norvegicus, ip
Procedure: (§1) Rats are made diabetic by a single intraperitoneal injection of streptozotocin (50 mg/kg body weight) freshly dissolved in 0.9% sterile saline) in order to ablate pancreatic β cells and induce insulin deficiency. Two days later, diabetes is confirmed in streptozotocin-injected rats by measuring glucose concentration in a blood sample obtained by tail prick, using a glucose oxidase-impregnated test strip and reflectance meter (Ames Glucostix and Glucometer II, Myles Inc., Elkhart, Ind.) (Calcutt, et al., 1993). Streptozotocin-injected animals with blood glucose concentrations below 15 mmol/l are excluded from subsequent studies. Diabetic rats received thrice weekly sub-cutaneous injections of 2U heat-treated Ultralente insulin (Novo Industrie A/C, Copenhagen, Denmark) in a regime shown to prevent loss of body weight and musculature whilst allowing continued hyperglycemia. Injections were made on Monday, Wednesday and Friday and behavioral measurements made on Tuesdays and Thursdays.

painful neuropathies = settings: oral administration, literature; cited from earlier work
[2] = system: mechanical (tactile) allodynia in nerve ligation (Chung) model rats; test: animal or person; settings: for Duration / Time to peak effect / Max. efficacy (% MPE): Table I; for Max. efficacy (% MPE): highest dose tested; for ED50: Rattus norvegicus, ip
Procedure: Rats (male Sprague Dawley, Harlan Industries, Indianapolis, Ind.) are housed in ALAC approved cages using soft bedding and 12/12 hour day/night cycle, in atmospherically maintained rooms in the CTF/VA Animal Vivarium. For the nerve ligation model, rats are typically lesioned at 125-175 g body weight, while for the diabetic rat model, 275-325 gram rats are employed.
Kim SH, Chung JM: An experimental model for peripheral neuropathy produced by segmental spinal nerve ligation in the rat. Pain 50: 355-363 (1992).
Anomalous pain states evoked by nerve injury in man is believed to be modeled by effects produced by chronic peripheral nerve injury lesion in rats. To create a chronic nerve injury the L5 and L6 spinal nerves are visualized by removal of the L6 transverse process. The two spinal nerves are ligated with 6-0 silk thread […] under halothane anesthesia. […] The rats were allowed a 7 day postoperative recovery period before further studies or procedures.
Rats were placed in a clear plastic, wire mesh-bottomed cage, divided into individual compartments of 5×6×9 inches, which permitted freedom of movement while allowing access to the paws to be tested. Animals were allowed to accommodate to this environment for approximately 15 minutes, or until cage exploration behavior ceased. To assess the 50% mechanical threshold for paw withdrawal, von Frey hairs were applied to the plantar mid-hindpaw, avoiding the footpads. The eight von Frey hairs used are designated by and range from 0.4-15.1 grams (#'s3.61-5/18). Each hair was pressed perpendicularly against the paw with sufficient force to cause bending, and held for approximately 6-8 seconds. A positive response was noted if the paw was sharply withdrawn. Absence of a response was cause to present the next consecutive stronger stimulus: a positive response was cause to present the next weaker stimulus. If a change in response occurred, causing a change in the direction of stimulus presentation from descending to ascending or vice-versa, four additional data points were collected subsequent to the change. Stimuli were presented successively until either six data points were collected, or the maximum or minimum stimulus was reached. If a minimum stimulus was reached and positive responses still occurred, the threshold was assigned an arbitrary minimum value of 0.25 grams; if a maximum stimulus was presented and no response occurred, a maximum threshold value of 15 grams was assigned. The resulting pattern of responses was tabulated and the 50% response threshold computed using the formula:
log (threshold, mg×10)=Xf+k∂
Based on observations on normal, unoperated rats and sham-operated rats, the cutoff of a 15.1 g hair is selected as the upper limit for testing. (Chaplan, et al., 1994.)
Four agents were examined. […] The dose range was determined on a single rat on a 0.5 log unit dose until an endpoint of effect was reached (loss of motor function, seizure/rigidity, complete nerve blockage). Once the dose range was established, each drug was examined at a minimum of 3 doses in groups of 6 rats per dose. Groups were prepared to receive injections of drugs, or saline control, by i.p. injection. After the animals accommodated to the post-operative test environment, animals received treatment and the effects upon the tactile threshold were determined using the up-down method as described in Example 3. The following is a typical paradigm for IP application: […]

[3] = cited from earlier work
[4] = system: mechanical (tactile) allodynia in streptozotocin diabetic rats; settings: i.p.; for Duration / Time to peak effect: Table III; for Max. efficacy (% MPE): Table III (3, 10 and 20 mg/kg levels only); for maximum efficacy or highest % suppression of allodynia at highest dosage unaffected by toxicity: Example 6
Procedure: as §1

cardiac sodium channels = settings: Hill et al. 1988; cited from earlier work
arrhythmia in dogs = settings: cited from earlier work
[5] = stated without a described test
[6] = read-out: ED 50 or the calculated dose for 50% suppression
[7] = 30 mg/kg, affected by toxicity/behavioral problems, not probative
[8] = Chung model rats, i.p., Example 5

Row | Compound | ED50 [1] | Duration ([2]; Chung model rats, i.p.) | Time to peak effect ([2]; Chung model rats, i.p.) | Max. efficacy (% MPE) ([2]; Chung model rats, i.p.) | ED50 [2] | ED50 [2, 6] | % MPE ([4]; 3 mg/kg) | % MPE ([4]; 10 mg/kg) | % MPE ([4]; 20 mg/kg) | % MPE [4, 7] | Duration [4] | Time to peak effect [4] | Max. efficacy (% MPE) [4] | maximum efficacy or highest % suppression of allodynia at highest dose tested [2, 8] | maximum efficacy or highest % suppression of allodynia at highest dosage unaffected by toxicity [4] | further results
1 | Cc1cccc(C)c1OCC(C)N (racemic) [RS-Mexiletine, (R,S)-mexiletine] | 17 mg/kg | 60 min | 15 to 30 min | 76 % MPE | 35 mg/kg | 35 mg/kg | 20 % MPE | 29 % MPE | 42 % MPE | 75 % MPE | < 60 min | 30 to 45 min | 61 % MPE |  |  | efficacy in painful neuropathies (painful neuropathies): has shown efficacy for a variety of painful neuropathies; therapeutic-toxic concentration range ([3]; Monk et al. 1990): 0.5 to 2.0 µg/mL; incidence of adverse side effects (tremors, diplopia, nausea and vomiting) ([3]; human, in vivo): up to 70% of patients
2 | CCN(CC)CC(=O)Nc1c(C)cccc1C [Lidocaine, lidocaine] | 32 mg/kg | 90 min | 15 min | 83 % MPE | 38 mg/kg |  |  |  |  |  | 30 min | 30 min | 39 % MPE |  |  | 
3 | Cc1cccc(C)c1OC[C@@H](C)N [R-Mexiletine, (R)-mexiletine] |  |  | 30 min | 12 % MPE |  |  | 10 % MPE | 15 % MPE | 11 % MPE | 86 % MPE |  | 15 to 30 min | 11 % MPE | 12%±5% | 11%±5% | binding affinity relative to (S)-mexiletine (cardiac sodium channels): twice that of (S)mexiletine; antiarrhythmic properties relative to the (S)-isomer (arrhythmia in dogs; background finding referred to): greater than two times more antiarrhythmic properties than the (S)-isomer; antiarrhythmic properties relative to the (S)-enantiomer (arrhythmia in dogs; dogs, Turgeon et al. 1991): greater antiarrhythmic properties than the (S)-enantiomer; ED 50 (in words) [2, 8]: could not be calculated due to low effect at maximum dose
4 | Cc1cccc(C)c1OC[C@H](C)N [S-Mexiletine, (S)-mexiletine] | 15 mg/kg | 60 min | 15 min | 79 % MPE | 14 mg/kg | 14 mg/kg | 12 % MPE | 50 % MPE | 30 % MPE | 75 % MPE | 60 min | 15 to 45 min | 65 % MPE | 79%±11% | 65%±16% | therapeutic-toxic range [5]: 0.25 to 4 µg/mL
